For the first experiment, the target named is T1, TRPC5 (Homo sapiens, UniProt Q9UL62).
T1 construct: expressed in transfected cells; host or cells: HEK 293
T1 sequence (Q9UL62 1-973): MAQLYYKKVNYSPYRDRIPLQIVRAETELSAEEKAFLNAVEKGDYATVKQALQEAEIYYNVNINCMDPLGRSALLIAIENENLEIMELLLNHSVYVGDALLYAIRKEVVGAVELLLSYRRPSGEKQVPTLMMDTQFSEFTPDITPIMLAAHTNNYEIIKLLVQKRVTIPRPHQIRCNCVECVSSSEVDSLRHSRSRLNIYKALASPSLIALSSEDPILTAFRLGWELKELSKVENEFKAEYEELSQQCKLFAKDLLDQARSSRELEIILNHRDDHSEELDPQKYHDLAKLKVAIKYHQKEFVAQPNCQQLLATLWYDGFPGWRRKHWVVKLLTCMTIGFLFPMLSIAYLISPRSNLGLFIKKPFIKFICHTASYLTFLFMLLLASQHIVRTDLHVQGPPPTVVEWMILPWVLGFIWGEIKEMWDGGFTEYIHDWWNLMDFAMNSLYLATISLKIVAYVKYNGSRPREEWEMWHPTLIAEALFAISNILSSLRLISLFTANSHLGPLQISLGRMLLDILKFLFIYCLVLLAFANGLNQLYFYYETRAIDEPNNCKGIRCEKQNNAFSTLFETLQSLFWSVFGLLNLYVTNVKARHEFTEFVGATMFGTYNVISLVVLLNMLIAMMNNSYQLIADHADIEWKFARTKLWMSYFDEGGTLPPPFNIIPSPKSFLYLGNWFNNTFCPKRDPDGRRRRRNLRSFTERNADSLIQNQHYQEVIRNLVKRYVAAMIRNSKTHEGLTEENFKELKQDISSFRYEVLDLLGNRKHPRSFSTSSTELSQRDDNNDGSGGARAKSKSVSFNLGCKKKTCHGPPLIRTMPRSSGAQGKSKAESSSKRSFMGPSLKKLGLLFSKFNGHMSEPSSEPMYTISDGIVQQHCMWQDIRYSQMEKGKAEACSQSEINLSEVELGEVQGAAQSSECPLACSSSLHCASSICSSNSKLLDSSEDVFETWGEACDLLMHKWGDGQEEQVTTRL
Description: TRPC5 Fluorescence Assay - FLIPR format (HEK-TREx hTRPC5, Riluzole stimulation). Type of experiment: cell-based. Particulars: Table 9, read-out: hTRPCS-FLIPR IC50. Here is the method: • Cell line: ICLN-001633 • Base Cell: HEK • Channel: TRPC5 • Species: Human • Thaw ID: multiple • Passage: multiple
FLIPR Assay Buffer (Earls Balanced Salt Solution (EBSS) was prepared as follows:
Test Agent Preparation: Compounds were made up to, or supplied as, a 10 mM stock solution generally using DMSO as the vehicle. 10-point dose response curves were generated using the Echo-550 acoustic dispenser. Compound source plates were made by serially diluting compound stocks to create 10 mM, 1 mM, and 0.1 mM solutions in DMSO into Echo certified LDV plates. The Echo then serially spotted 100% DMSO stock solutions into source dose response plates to generate a 4-fold dilution scheme. 100% DMSO was added to the spotted dose response plates to bring the final volume to 5 μl. […] of the dose response stock plate was then spotted into pre-incubation and stimulation assay plates. 50 μl of pre-incubation buffer and 100 μl of stimulation buffer was then added to the plates resulting in a final assay test concentration range of 30 μM to 0.0001 μM with a final DMSO concentration of 0.3%.
Experimental Methods: Cells expressing TRPC5 (HEK-TREx hTRPC5) are plated onto 384 well, black PDL-coated microplates and maintained in TRPC5 growth media the day prior to use for experiments. TRPC5 expression is induced by the application of […] tetracycline at the time of plating. Media is removed from the plates and 10 μl of 4 μM of Fluo-4 AM (mixed with equal volume of Pluronic F-127) in EBSS is added to the cells. Cells are incubated at room temperature, protected from light, for 60-90 minutes. After the incubation period, the dye is removed and replaced with 10 μl of EBSS. Cell, pre-incubation and stimulation plates are loaded onto the FLIPR-II and the assay is initiated. The FLIPR measures a 10 second baseline and then adds 10 μl of 2× compounds (or controls). Changes in fluorescence are monitored for an additional 5 minutes. After the 5 minute pre-incubation, 20 μl of 2× Riluzole (with 1× compound or controls) is added to the cell plate. The final Riluzole stimulation concentration in the assay is 30 μM. After the Riluzole addition, changes in fluorescence are monitored for an additional 5 minutes.
Test Agent Effect: Test agent modulation of TRPC5 calcium response was determined as follows. After the Riluzole, fluorescence was monitored for a 5 minute period. The maximum relative fluorescene response (minus the control response of 1 μM of the control inhibitor) was captured and exported from the FLIPR. Test agent effect was calculated as % inhibition using the following formula: % inhibition=((RFU Test Agent−Plate Average RFU REF INHIB)/(Plate Average RFU Control−Plate Average RFU REF INHIB))×100
In the case of `C[C@@H](c1ccc(F)cc1C(F)(F)F)N1CCN(c2cn[nH]c(=O)c2Cl)CC1=O` [drawing 1049], the IC50 is 0.01 to 1000 nM.

Take `C[C@@H](c1ccccc1C(F)(F)F)N1CCN(c2cn[nH]c(=O)c2Cl)CC1=O` [drawing 1044]: the IC50 lay in the range of 0.01 to 1000 nM.

`C[C@H](c1ccc(F)cc1C(F)(F)F)N1C[C@@H](C)N(c2cn[nH]c(=O)c2Cl)CC1=O` [drawing 1048]: the IC50 fell in the range of 0.01 to 1000 nM.

The same experiment, now with this note: Table 10, read-out: TRPCS-FLIPR IC50.
As to `O=c1[nH]ncc(N2CCc3c(Cc4ccc(F)cc4C(F)(F)F)n[nH]c3C2)c1Cl` [drawing 1153], the IC50 fell in the range of 0.01 to 1000 nM.

Turning to `C[C@H](c1ccccc1C(F)(F)F)n1nnc2c1CCN(c1cn[nH]c(=O)c1Cl)[C@H]2C` [drawing 1078], the IC50 was 0.01 to 1000 nM.

As for `C[C@@H]1Cc2c(nnn2[C@@H](C)c2ccc(F)cc2C(F)(F)F)CN1c1cn[nH]c(=O)c1Cl` [drawing 1085], the IC50 lay in the range of 0.01 to 1000 nM.

Regarding `CCc1ncccc1N(C)c1ncc2c(n1)CN(c1cn[nH]c(=O)c1Cl)C2` [drawing 1154], the IC50 is 0.01 to 1000 nM.

Regarding `CCS(=O)(=O)c1nc2c(n1Cc1ccccc1C(F)(F)F)CCN(c1cn[nH]c(=O)c1Cl)C2` [drawing 1079], the IC50 lay in the range of 0.01 to 1000 nM.

For `C[C@H](c1ccccc1C(F)F)n1nnc2c1CCN(c1cn[nH]c(=O)c1Cl)C2` [drawing 1100], the IC50 is 0.01 to 1000 nM.

On to `C[C@H](c1ccccc1C(F)(F)F)n1nc(C(N)=O)c2c1CCN(c1cn[nH]c(=O)c1Cl)C2` [drawing 1123], for which the IC50 was 0.01 to 1000 nM.

`CNC(=O)c1nn([C@H](C)c2ccccc2C(F)F)c2c1CN(c1cn[nH]c(=O)c1Cl)CC2` [drawing 1113]: the IC50 was 0.01 to 1000 nM.

`CC(c1ccc(F)cc1C(F)F)n1nc(C(N)=O)c2c1CCN(c1cn[nH]c(=O)c1Cl)C2` (centres unmarked) [drawing 1114]: the IC50 was 0.01 to 1000 nM.

`C[C@@H]1Cc2c(nnn2[C@@H](C)c2ccccc2C(F)(F)F)CN1c1cn[nH]c(=O)c1Cl` [drawing 1071]: the half-maximal inhibitory concentration (IC50) lay in the range of 0.01 to 1000 nM.

`CCN(c1ncc2c(n1)CN(c1cn[nH]c(=O)c1Cl)C2)c1ccccc1Cl` [drawing 1148]: the IC50 lay in the range of 0.01 to 1000 nM.

Consider `CN(c1ncc2c(n1)CN(c1cn[nH]c(=O)c1Cl)C2)c1ccc(F)cc1Cl` [drawing 1144], for which the IC50 lay in the range of 0.01 to 1000 nM.

With `C[C@H](c1ccccc1Cl)n1nnc2c1CCN(c1cn[nH]c(=O)c1Cl)C2` [drawing 1133], the IC50 lay within 0.01 to 1000 nM.

Turning to `O=c1[nH]ncc(N2CCc3c(c(=O)[nH]n3Cc3ccccc3C(F)(F)F)C2)c1Cl` [drawing 1081], the IC50 lay within 0.01 to 1000 nM.

For `C[C@@H]1Cc2c(c(C(N)=O)nn2Cc2ccccc2C(F)(F)F)CN1c1cn[nH]c(=O)c1Cl` [drawing 1118], the IC50 was in the range of 0.01 to 1000 nM.

Consider `O=c1[nH]ncc(N2CCc3c(ncn3Cc3ccc(F)cc3Cl)C2)c1Cl` [drawing 1136], for which the IC50 fell in the range of 0.01 to 1000 nM.

Regarding `COCc1ccccc1Cn1cnc2c1CCN(c1cn[nH]c(=O)c1Cl)C2` [drawing 1053], the IC50 fell in the range of 0.01 to 1000 nM.

For the compound `CS(=O)(=O)c1nc2c(n1Cc1ccccc1C(F)(F)F)CCN(c1cn[nH]c(=O)c1Cl)C2` [drawing 1142], the IC50 fell in the range of 0.01 to 1000 nM.

As for `CNC(=O)c1nn(Cc2ccc(F)cc2C(F)F)c2c1CN(c1cn[nH]c(=O)c1Cl)CC2` [drawing 1117], the IC50 was 0.01 to 1000 nM.

For `O=c1[nH]ncc(N2CCc3c(nnn3Cc3ccc(F)cc3CC(F)(F)F)C2)c1Cl` [drawing 1131], the IC50 was 0.01 to 1000 nM.

On to `NC(=O)c1nc2c(n1Cc1ccccc1C(F)(F)F)CCN(c1cn[nH]c(=O)c1Cl)C2` [drawing 1135], for which the IC50 lay within 0.01 to 1000 nM.

As to `C[C@@H](c1ccc(F)cc1C(F)F)n1nnc2c1CCN(c1cn[nH]c(=O)c1Cl)C2` [drawing 1107], the IC50 was 0.01 to 1000 nM.

Regarding `C[C@H](c1ccc(F)cc1C(F)(F)F)n1nnc2c1CCN(c1cn[nH]c(=O)c1Cl)[C@H]2C` [drawing 1092], the IC50 was in the range of 0.01 to 1000 nM.

Take `C[C@H](c1ccc(F)cc1C(F)F)n1nc(C(N)=O)c2c1CCN(c1cn[nH]c(=O)c1Cl)C2`: the IC50 was in the range of 0.01 to 1000 nM.

As to `COC[C@H](c1ccccc1C(F)(F)F)n1cnc2c1CCN(c1cn[nH]c(=O)c1Cl)C2` [drawing 1120], the IC50 fell in the range of 0.01 to 1000 nM.

Turning to `C[C@@H](c1cccnc1CC(F)F)n1nnc2c1CCN(c1cn[nH]c(=O)c1Cl)C2` [drawing 1125], the concentration for half-maximal inhibition (IC50) is 0.01 to 1000 nM.

For `COCc1ncccc1Cn1cnc2c1CCN(c1cn[nH]c(=O)c1Cl)C2` [drawing 1065], the IC50 was 0.01 to 1000 nM.

On to `O=c1[nH]ncc(N2CCc3c(ncn3Cc3ccccc3Cl)C2)c1Cl` [drawing 1139], for which the concentration for half-maximal inhibition (IC50) lay in the range of 0.01 to 1000 nM.

`C[C@@H](c1ccccc1C(F)F)n1nnc2c1CCN(c1cn[nH]c(=O)c1Cl)C2` [drawing 1106]: the half-inhibitory concentration (IC50) lay within 0.01 to 1000 nM.

Consider `CNC(=O)c1nc2c(n1Cc1ccccc1C(F)(F)F)CCN(c1cn[nH]c(=O)c1Cl)C2` [drawing 1134], for which the IC50 fell in the range of 0.01 to 1000 nM.

Consider `C[C@@H](c1ccccc1Cl)n1nnc2c1CCN(c1cn[nH]c(=O)c1Cl)C2` [drawing 1140], for which the IC50 was in the range of 0.01 to 1000 nM.

Regarding `[2H]c1nc2c(n1Cc1ccccc1C(F)(F)F)CCN(c1cn[nH]c(=O)c1Cl)C2`, the IC50 fell in the range of 0.01 to 1000 nM.

One may read the IC50 as the concentration that inhibits the measured activity by half.

(Values after patent US20260184708A1, “PYRIDAZINONES AND METHODS OF USE THEREOF” (GFB (ABC), LLC, priority 2017, published 2026).)
